Measurements as given in patent US20230085307A1, “PYRIDAZINONE COMPOUND AND HERBICIDE” (NISSAN CHEMICAL CORPORATION, priority 2019, published 2023).

Assays:
barnyard grass [1] = experiment: Test Example 3: herbicidal effect by foliage application, Wagner pot (Table 18, symbol H); assay type: in vivo, barnyard grass (Echinochloa crus-galli); settings: 320 g/ha
In short: (§1)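 Plants were sown in alluvial soil held under 0.1–0.5 cm standing water and grown 14 days in a greenhouse at 25–30 °C. An emulsifiable formulation, water-diluted to the set dose, was then sprayed onto the foliage, and effects were scored three weeks later using previously defined criteria.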

Chinese sprangletop = experiment: Test Example 3: herbicidal effect by foliage application, Wagner pot (Table 18, symbol D); assay type: in vivo, chinese sprangletop (Leptochloa chinensis); settings: 320 g/ha
In short: as §1

rice flat sedge = experiment: Test Example 3: herbicidal effect by foliage application, Wagner pot (Table 18, symbol E); assay type: in vivo, rice flat sedge (Cyperus iria); settings: 320 g/ha
In short: as §1

southern crabgrass [2] = experiment: Test Example 4: herbicidal effect by soil treatment (Table 19, symbol F); assay type: in vivo, southern crabgrass (Digitaria ciliaris); settings: amount of applied herbicide 320 g/ha
In short: (§2)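 Three weeks of greenhouse growth at 25° C. to 30° C. followed a uniform surface spray of water-diluted emulsion at a predetermined herbicide amount. Seeds had been sown beforehand under about 1.5 cm of sterilized diluvial soil. Grading followed criteria set out in an earlier test.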

green foxtail [3] = experiment: Test Example 4: herbicidal effect by soil treatment (Table 19, symbol G); assay type: in vivo, green foxtail (Setaria viridis); settings: amount of applied herbicide 320 g/ha
In short: as §2

barnyard grass [4] = experiment: Test Example 4: herbicidal effect by soil treatment (Table 19, symbol H); assay type: in vivo, barnyard grass (Echinochloa crus-galli); settings: amount of applied herbicide 320 g/ha
In short: as §2

wild oat [5] = experiment: Test Example 4: herbicidal effect by soil treatment (Table 19, symbol I); assay type: in vivo, wild oat (Avena fatua); settings: amount of applied herbicide 320 g/ha
In short: as §2

blackgrass [6] = experiment: Test Example 4: herbicidal effect by soil treatment (Table 19, symbol J); assay type: in vivo, blackgrass (Alopecurus myosuroides); settings: amount of applied herbicide 320 g/ha
In short: as §2

Italian ryegrass [7] = experiment: Test Example 4: herbicidal effect by soil treatment (Table 19, symbol K); assay type: in vivo, Italian ryegrass (Lolium multiflorum); settings: amount of applied herbicide 320 g/ha
In short: as §2

windgrass = experiment: Test Example 4: herbicidal effect by soil treatment (Table 19, symbol L); assay type: in vivo, windgrass (Apera spica-venti); settings: amount of applied herbicide 320 g/ha
In short: as §2

velvetleaf [8] = experiment: Test Example 4: herbicidal effect by soil treatment (Table 19, symbol M); assay type: in vivo, velvetleaf (Abutilon theophrasti); settings: amount of applied herbicide 320 g/ha
In short: as §2

redroot pigweed [9] = experiment: Test Example 4: herbicidal effect by soil treatment (Table 19, symbol N); assay type: in vivo, redroot pigweed (Amaranthus retroflexus); settings: amount of applied herbicide 320 g/ha
In short: as §2

lambsquarters [10] = experiment: Test Example 4: herbicidal effect by soil treatment (Table 19, symbol O); assay type: in vivo, lambsquarters (Chenopodium album); settings: amount of applied herbicide 320 g/ha
In short: as §2

chickweed [11] = experiment: Test Example 4: herbicidal effect by soil treatment (Table 19, symbol P); assay type: in vivo, common chickweed (Stellaria media); settings: amount of applied herbicide 320 g/ha
In short: as §2

persian speedwell [12] = experiment: Test Example 4: herbicidal effect by soil treatment (Table 19, symbol R); assay type: in vivo, Persian speedwell (Veronica persica); settings: amount of applied herbicide 320 g/ha
In short: as §2

southern crabgrass [13] = experiment: Test Example 5: herbicidal effect by foliage application, plastic box (Table 20, symbol F); assay type: in vivo, southern crabgrass (Digitaria ciliaris); settings: 320 g/ha, foliage application after 14-day growth, evaluated three weeks after application
In short: (§3)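 Plants sown in sterilized diluvial soil and grown 14 days in a greenhouse at 25° C to 30° C, then sprayed on the foliage with the compound's emulsion diluted in water to a predetermined herbicide amount. Injury to weeds and crops scored three weeks after application on a visual rating scale.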

green foxtail [14] = experiment: Test Example 5: herbicidal effect by foliage application, plastic box (Table 20, symbol G); assay type: in vivo, green foxtail (Setaria viridis); settings: 320 g/ha, foliage application after 14-day growth, evaluated three weeks after application
In short: as §3

barnyard grass [15] = experiment: Test Example 5: herbicidal effect by foliage application, plastic box (Table 20, symbol H); assay type: in vivo, barnyard grass (Echinochloa crus-galli); settings: 320 g/ha, foliage application after 14-day growth, evaluated three weeks after application
In short: as §3

wild oat [16] = experiment: Test Example 5: herbicidal effect by foliage application, plastic box (Table 20, symbol I); assay type: in vivo, wild oat (Avena fatua); settings: 320 g/ha, foliage application after 14-day growth, evaluated three weeks after application
In short: as §3

blackgrass [17] = experiment: Test Example 5: herbicidal effect by foliage application, plastic box (Table 20, symbol J); assay type: in vivo, blackgrass (Alopecurus myosuroides); settings: 320 g/ha, foliage application after 14-day growth, evaluated three weeks after application
In short: as §3

Italian ryegrass [18] = experiment: Test Example 5: herbicidal effect by foliage application, plastic box (Table 20, symbol K); assay type: in vivo, Italian ryegrass (Lolium multiflorum); settings: 320 g/ha, foliage application after 14-day growth, evaluated three weeks after application
In short: as §3

velvetleaf [19] = experiment: Test Example 5: herbicidal effect by foliage application, plastic box (Table 20, symbol M); assay type: in vivo, velvetleaf (Abutilon theophrasti); settings: 320 g/ha, foliage application after 14-day growth, evaluated three weeks after application
In short: as §3

redroot pigweed [20] = experiment: Test Example 5: herbicidal effect by foliage application, plastic box (Table 20, symbol N); assay type: in vivo, redroot pigweed (Amaranthus retroflexus); settings: 320 g/ha, foliage application after 14-day growth, evaluated three weeks after application
In short: as §3

lambsquarters [21] = experiment: Test Example 5: herbicidal effect by foliage application, plastic box (Table 20, symbol O); assay type: in vivo, lambsquarters (Chenopodium album); settings: 320 g/ha, foliage application after 14-day growth, evaluated three weeks after application
In short: as §3

chickweed [22] = experiment: Test Example 5: herbicidal effect by foliage application, plastic box (Table 20, symbol P); assay type: in vivo, common chickweed (Stellaria media); settings: 320 g/ha, foliage application after 14-day growth, evaluated three weeks after application
In short: as §3

persian speedwell [23] = experiment: Test Example 5: herbicidal effect by foliage application, plastic box (Table 20, symbol R); assay type: in vivo, Persian speedwell (Veronica persica); settings: 320 g/ha, foliage application after 14-day growth, evaluated three weeks after application
In short: as §3

Row | SMILES | herbicidal effect on barnyard grass (H) (barnyard grass [1]) | herbicidal effect on Chinese sprangletop (D) (Chinese sprangletop) | herbicidal effect on rice flat sedge (E) (rice flat sedge) | Herbicidal effect by soil treatment, F: southern crabgrass (southern crabgrass [2]) | Herbicidal effect by soil treatment, G: green foxtail (green foxtail [3]) | Herbicidal effect by soil treatment, H: barnyard grass (barnyard grass [4]) | Herbicidal effect by soil treatment, I: wild oat (wild oat [5]) | Herbicidal effect by soil treatment, J: blackgrass (blackgrass [6]) | Herbicidal effect by soil treatment, K: Italian ryegrass (Italian ryegrass [7]) | Herbicidal effect by soil treatment, L: windgrass (windgrass) | Herbicidal effect by soil treatment, M: velvetleaf (velvetleaf [8]) | Herbicidal effect by soil treatment, N: redroot pigweed (redroot pigweed [9]) | Herbicidal effect by soil treatment, O: lambsquarters (lambsquarters [10]) | Herbicidal effect by soil treatment, P: chickweed (chickweed [11]) | Herbicidal effect by soil treatment, R: persian speedwell (persian speedwell [12]) | herbicidal effect on F: southern crabgrass (evaluation grade 0-5) (southern crabgrass [13]) | herbicidal effect on G: green foxtail (evaluation grade 0-5) (green foxtail [14]) | herbicidal effect on H: barnyard grass (evaluation grade 0-5) (barnyard grass [15]) | herbicidal effect on I: wild oat (evaluation grade 0-5) (wild oat [16]) | herbicidal effect on J: blackgrass (evaluation grade 0-5) (blackgrass [17]) | further results
1 | Cc1nn(C)c(=O)c(-c2c(-c3ccc(F)cc3)sc3c(Cl)cccc23)c1O [4-015] | 3 (Herbicidal rate of 40% or more and less than 70%) | 3 (Herbicidal rate of 40% or more and less than 70%) | 5 (Herbicidal rate of 90% or more (almost completely withered)) | 0 (Herbicidal rate of 5% or less (almost no effect)) | 0 (Herbicidal rate of 5% or less (almost no effect)) | 0 (Herbicidal rate of 5% or less (almost no effect)) | 0 (Herbicidal rate of 5% or less (almost no effect)) | 0 (Herbicidal rate of 5% or less (almost no effect)) | 0 (Herbicidal rate of 5% or less (almost no effect)) | 0 (Herbicidal rate of 5% or less (almost no effect)) | 0 (Herbicidal rate of 5% or less (almost no effect)) | 2 (Herbicidal rate of 20% or more and less than 40%) | 3 (Herbicidal rate of 40% or more and less than 70%) | 0 (Herbicidal rate of 5% or less (almost no effect)) | 0 (Herbicidal rate of 5% or less (almost no effect)) | 0 (Herbicidal rate of 5% or less (almost no effect)) | 0 (Herbicidal rate of 5% or less (almost no effect)) | 0 (Herbicidal rate of 5% or less (almost no effect)) | 0 (Herbicidal rate of 5% or less (almost no effect)) | 0 (Herbicidal rate of 5% or less (almost no effect)) | herbicidal effect on K: Italian ryegrass (evaluation grade 0-5) (Italian ryegrass [18]): 0 (Herbicidal rate of 5% or less (almost no effect)); herbicidal effect on M: velvetleaf (evaluation grade 0-5) (velvetleaf [19]): 1 (Herbicidal rate of 5% or more and less than 20%); herbicidal effect on N: redroot pigweed (evaluation grade 0-5) (redroot pigweed [20]): 1 (Herbicidal rate of 5% or more and less than 20%); herbicidal effect on O: lambsquarters (evaluation grade 0-5) (lambsquarters [21]): 1 (Herbicidal rate of 5% or more and less than 20%); herbicidal effect on P: chickweed (evaluation grade 0-5) (chickweed [22]): 5 (Herbicidal rate of 90% or more (almost completely withered)); herbicidal effect on R: persian speedwell (evaluation grade 0-5) (persian speedwell [23]): 4 (Herbicidal rate of 70% or more and less than 90%)
2 | Cc1nn(C)c(=O)c(-c2c(-c3ccc(Cl)cc3)sc3c(F)cccc23)c1O [4-040] | 5 (Herbicidal rate of 90% or more (almost completely withered)) | 4 (Herbicidal rate of 70% or more and less than 90%) | 5 (Herbicidal rate of 90% or more (almost completely withered)) | 0 (Herbicidal rate of 5% or less (almost no effect)) | 0 (Herbicidal rate of 5% or less (almost no effect)) | 0 (Herbicidal rate of 5% or less (almost no effect)) | 0 (Herbicidal rate of 5% or less (almost no effect)) | 0 (Herbicidal rate of 5% or less (almost no effect)) | 2 (Herbicidal rate of 20% or more and less than 40%) | 0 (Herbicidal rate of 5% or less (almost no effect)) | 0 (Herbicidal rate of 5% or less (almost no effect)) | 3 (Herbicidal rate of 40% or more and less than 70%) | 3 (Herbicidal rate of 40% or more and less than 70%) | 1 (Herbicidal rate of 5% or more and less than 20%) | 4 (Herbicidal rate of 70% or more and less than 90%) | 0 (Herbicidal rate of 5% or less (almost no effect)) | 4 (Herbicidal rate of 70% or more and less than 90%) | 3 (Herbicidal rate of 40% or more and less than 70%) | 0 (Herbicidal rate of 5% or less (almost no effect)) | 3 (Herbicidal rate of 40% or more and less than 70%) | herbicidal effect on K: Italian ryegrass (evaluation grade 0-5) (Italian ryegrass [18]): 4 (Herbicidal rate of 70% or more and less than 90%); herbicidal effect on M: velvetleaf (evaluation grade 0-5) (velvetleaf [19]): 4 (Herbicidal rate of 70% or more and less than 90%); herbicidal effect on N: redroot pigweed (evaluation grade 0-5) (redroot pigweed [20]): 5 (Herbicidal rate of 90% or more (almost completely withered)); herbicidal effect on O: lambsquarters (evaluation grade 0-5) (lambsquarters [21]): 3 (Herbicidal rate of 40% or more and less than 70%); herbicidal effect on P: chickweed (evaluation grade 0-5) (chickweed [22]): 5 (Herbicidal rate of 90% or more (almost completely withered)); herbicidal effect on R: persian speedwell (evaluation grade 0-5) (persian speedwell [23]): 5 (Herbicidal rate of 90% or more (almost completely withered))
